According to patent US6908742B2, “Methods and kits for the detection of endotoxin” (priority 1996, dated 2005):

Columns and labels:
[1] = target: T1, A1 adenosine receptors in membranes from feline PAECs (Felis catus, UniProt A0ABI7XJE9); experiment: Competition experiments for [3H] DPCPX in feline PAEC membranes; format: binding; conditions: cultured feline PAEC membranes
T1 sequence (A0ABI7XJE9 1-326): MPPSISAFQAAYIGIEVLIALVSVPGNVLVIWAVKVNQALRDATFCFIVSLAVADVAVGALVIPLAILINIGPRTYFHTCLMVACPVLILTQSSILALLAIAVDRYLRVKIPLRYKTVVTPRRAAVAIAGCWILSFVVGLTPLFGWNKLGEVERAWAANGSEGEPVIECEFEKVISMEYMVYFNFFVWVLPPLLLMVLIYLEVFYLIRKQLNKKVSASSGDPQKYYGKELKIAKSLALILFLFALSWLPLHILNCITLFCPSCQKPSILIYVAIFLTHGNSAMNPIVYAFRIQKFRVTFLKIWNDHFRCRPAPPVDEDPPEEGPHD
Experimental: (§1) Feline PAECs were grown to confluency in […] culture plates. The confluent cells were washed twice with KSP buffer (10 mM KH2P04, 50 mM sucrose). The cells were scraped and suspended in KSP buffer at a concentration of 1×10^6 cells/ml in two conical centrifuge tubes. The tubes were centrifuged at 1000 g×2 minutes and the buffer discarded. The cells from one tube were then suspended in deoxygenated buffer (bubbled with N2 gas for 10 minutes) and bubbled with N2 gas for 30 seconds to insure hypoxic conditions. These cells were then incubated for 2 hours in this hypoxic buffer. Cells from the other tube were suspended in normal KSP buffer and incubated at 37° C. for 2 hours. At the end of incubation, cells were homogenized immediately for membrane preparation.
For membrane preparation, the cells were homogenized by sonication and centrifuged at 1000× g for 10 minutes. The supernatant was centrifuged again at 30,000× g for 30 minutes. […]
Radioligand binding data are analyzed with the use of Graph Pad Prism by nonlinear regression analysis equipped with a statistical package. Data are expressed as mean±SEM. Hill plots and Schild plots are determined for each species of LPS in competition experiments and are used as standard curves for the determinations of the concentration of endotoxin in samples with unknown concentrations of endotoxin.

[2] = target: T2, A1 adenosine receptors in hamster brain membranes (Mesocricetus auratus, UniProt A0A1U8BVR4); experiment: Saturation experiments with [3H] DPCPX or [3H] CCPA in hamster brain membranes; format: binding
T2 sequence (A0A1U8BVR4 1-326): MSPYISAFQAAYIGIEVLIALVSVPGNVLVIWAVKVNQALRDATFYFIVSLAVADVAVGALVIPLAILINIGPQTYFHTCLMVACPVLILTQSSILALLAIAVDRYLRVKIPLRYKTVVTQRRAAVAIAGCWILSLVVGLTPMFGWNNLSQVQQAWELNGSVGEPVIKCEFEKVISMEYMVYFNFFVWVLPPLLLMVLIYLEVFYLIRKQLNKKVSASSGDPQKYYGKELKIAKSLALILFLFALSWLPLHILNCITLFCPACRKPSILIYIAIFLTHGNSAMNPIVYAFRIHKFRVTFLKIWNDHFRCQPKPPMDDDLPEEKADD
Experimental: (§2) Frozen sheep brain (Pel Freeze, Rodgers, Ark.) or hamster brain (Harlan Bioproducts, Indianapolis, Ind.) was thawed and homogenized in 10 volumes of cold (4° C.), 0.32 M sucrose. The homogenate was centrifuged at 1,000× g for 10 minutes to remove the nuclear fraction. The supernatant was centrifuged at 30,000× g for 30 minutes. The resulting pellet was resuspended in 10 ml water and left on ice for 30 minutes to obtain synaptosomal membranes. The suspension was then centrifuged at 48,000× g for 10 minutes and the membranes resuspended in 50 mM Tris-HCl (pH 7.4) at a concentration of 8 mg protein/ml, frozen in liquid nitrogen, and stored at −20° C. until binding assay.
(§3) Binding of [^3H] DPCPX or [^3H] CCPA to membranes was carried out in an assay volume of 500 μl Tris-HCl, pH 7.4, MgCl2 (10 mM) (for membranes from feline PAECs only) containing [^3H] DPCPX or [^3H] CCPA (0.01 to 4 nM). Nonspecific binding of [^3H] DPCPX or [^3H] CCPA was determined in the presence of R-PIA (100 μM) or theophylline (1 mM), respectively. To remove endogenous adenosine, adenosine deaminase was present in all binding assays at a concentration of 0.2 U/ml. Incubations were performed for 2 hours at room temperature for sheep and hamster brain membranes and 4° C. for feline PAEC membranes. Incubations were terminated by rapid removal of the incubation buffer by filtration through Whatman GF/B filters (Whatman Inc., Clifton, N.J.). The membrane bound radioactivity was measured by scintillation counting of the filter paper. To determine Kd, Bmax, and nonspecific binding in sheep and hamster brain and feline PAEC membranes, experiments are performed in duplicate.

[3] = target: T3, A1 adenosine receptors in sheep brain membranes (Ovis aries, UniProt A0ACI6R3B7); experiment: Saturation experiments with [3H] DPCPX or [3H] CCPA in sheep brain membranes; format: binding
T3 sequence (A0ACI6R3B7 1-326): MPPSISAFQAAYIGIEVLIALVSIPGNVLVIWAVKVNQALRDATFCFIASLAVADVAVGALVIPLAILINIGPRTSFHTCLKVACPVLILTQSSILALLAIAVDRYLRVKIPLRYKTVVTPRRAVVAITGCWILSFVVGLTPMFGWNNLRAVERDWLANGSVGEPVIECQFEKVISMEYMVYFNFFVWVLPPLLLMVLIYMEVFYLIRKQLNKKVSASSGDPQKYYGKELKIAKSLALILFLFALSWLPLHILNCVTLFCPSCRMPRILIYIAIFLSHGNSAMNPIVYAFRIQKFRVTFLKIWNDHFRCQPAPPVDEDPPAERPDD
Experimental: as §2, §3

[4] = target: T1, A1 adenosine receptors in membranes from feline PAECs; experiment: Saturation experiments with [3H] DPCPX in feline PAEC membranes; format: binding
Experimental: as §1
For membrane preparation, the cells were homogenized by sonication and centrifuged at 1000× g for 10 minutes. The supernatant was centrifuged again at 30,000× g for 30 minutes. The membrane fraction was reconstituted with Tris buffer for radioligand binding studies.
as §3

A1 adenosine receptor = target: T4, A1 adenosine receptor (Homo sapiens, UniProt P30542); conditions: in tissues; cited from earlier work
T4 construct: host or cells: tissues (not specified)
T4 sequence (P30542 1-326): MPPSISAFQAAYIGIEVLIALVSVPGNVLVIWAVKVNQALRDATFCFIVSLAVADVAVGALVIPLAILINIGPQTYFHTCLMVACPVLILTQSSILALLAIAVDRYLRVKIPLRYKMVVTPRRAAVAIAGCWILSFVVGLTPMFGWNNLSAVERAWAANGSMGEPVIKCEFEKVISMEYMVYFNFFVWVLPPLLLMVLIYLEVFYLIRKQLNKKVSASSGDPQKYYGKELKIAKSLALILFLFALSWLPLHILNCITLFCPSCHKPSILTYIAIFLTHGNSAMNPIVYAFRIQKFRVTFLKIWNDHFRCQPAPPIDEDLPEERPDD

In the case of `Nc1nc(Nc2ccccc2)nc2c1ncn2[C@@H]1O[C@H](CO)[C@@H](O)[C@H]1O` [CV 1808, 2-phenylaminoadenosine], the “displacement of bound [3H] DPCPX” value [1] is reported as “did not displace”.

With `OC[C@H]1O[C@@H](n2cnc3c(NC4CCCC4)nc(Cl)nc32)[C@H](O)[C@@H]1O` [[^3H] CCPA, 2-chloro-N^6-cyclopentyladenosine] the “density of high affinity A1 adenosine receptors” value ([2]; hamster brain, determined using [3H] CCPA) was 1630 ± 60 fmol/mg and the “density of high affinity A1 adenosine receptors” value ([3]; sheep brain, determined using [3H] CCPA) was 1920 ± 250 fmol/mg.

For `CCCn1c(=O)c2[nH]c(C3CCCC3)nc2n(CCC)c1=O` [[^3H]-DPCPX, [^3H]-1,3-dipropyl-8-cyclopentyladenosine xanthine], the Bmax ([4]; hypoxia) was 1458 fmoles/mg protein, the Kd ([4]; hypoxia) was 0.26 nM and the Bmax ([4]; normoxia) was 1064 fmoles/mg protein. For the same compound, the Kd ([4]; normoxia) was 0.33 nM, the Kd ([2]; hamster brain membranes) was 0.32 nM and the Bmax ([2]; hamster brain membranes, [3H]-DPCPX saturation) was 3733 fmoles/mg protein. It also gave a Kd ([3]; sheep brain membranes) of 0.37 nM and a Bmax ([3]; sheep brain membranes, [3H]-DPCPX saturation) of 2251 fmoles/mg protein.

For `CCCn1c(=O)c2[nH]c(C3CCCC3)nc2n(CCC)c1=O` [DPCPX, 1,3-dipropyl-8-cyclopentylxanthine], the nonspecific binding (A1 adenosine receptor) is given as “less than 1%”.
